The values that follow come from US6780871B2, “Methods and compositions for treating addiction disorders” (Albany Medical College, priority 2001, dated 2004).

One test has as its target T1, NR1/2A receptors (Rattus norvegicus, UniProt P35439+Q00959).
T1 construct: expressed in transfected cells; host or cells: HEK293 (ATCC CRL1573), transient transfection
Kind of test: whole-cell patch-clamp of transfected HEK293 cells, NR1/2A, 100 μM glutamate plus 10 μM glycine. The class given is cell-based. The protocol: (§1) Human embryonic kidney 293 (HEK293) fibroblasts (ATCC CRL1573) were cultured in minimal essential medium supplemented with 10% fetal bovine serum and 2 mM glutamine (Life Technologies, Rockville, Md.). Cells were plated on poly-D-lysine-coated 35 mm nunc dishes, transfected by the LipofectaminePLUS method (Life Technologies), and examined functionally between 18-48 h post transfection. The following receptor subunit cDNAs were used: nAChR-α3 (nicotinic acetylcholine receptor-α3; accession no. L31621), nAChR-α4 (accession no. L31620), nAChR-β2 (accession no. L31622), nAChR-β4 (accession no. U42976), 5-HT3R-A (5-HT3A receptor; accession no. M74425), NR1 (N-methyl-D-aspartate receptor 1; accession no. X63255), NR2A (accession no. X91561), and NR2B (accession no. M91562). The nAchR and NR clones were rat; the 5-HT3R-A clone was mouse. Co-transfection of enhanced green fluorescent protein (“EGFP”) (10% of total cDNA) provided a marker to identify transfected cells. Transfected cells were selected for EGFP expression and examined by voltage-clamp recording in the whole-cell configuration using an Axopatch 200B patch-clamp amplifier (Axon Instruments, Foster City, Calif.). Thin-walled borosilicate glass microelectrodes (TW150F, World Precision Instruments, Sarasota, Fla.) had resistances of 3-5 MΩ when filled with an internal solution containing (in mM): 135 CsCl, 10 CsF, 10 HEPES (N-[2-hydroxyethyl]piperazine-N′-[2-ethanesulfonic acid]), 5 EGTA (ethylene glycol-bis[β-aminoethyl ether]-N,N,N′,N′-tetraacetic acid), 1 MgCl2, 0.5 CaCl2, pH 7.2. Whole-cell capacitance and series resistance were recorded and adequately compensated using the available circuitry of the amplifier. Current responses were filtered at 1 kHz with an 8-pole Bessel filter (Cygnus Technologies, Delaware Water Gap, Pa.), digitized at 3 kHz, and stored on a Macintosh PowerPC-G3 computer using an ITC-16 interface (Instrutech, Great Neck, N.Y.) under control of the data acquisition and analysis program Synapse (Synergy Research, Gaithersburg, Md.). Cells were continuously superfused with extracellular solution containing (in mM): 150 NaCl, 3 KCl, 5 HEPES, 1 MgCl2, 1.8 CaCl2, 10 glucose, and 0.1 mg/ml phenol red, pH 7.3 (MgCl2 was omitted from all solutions used for the study of NMDA receptors). […] Control, agonist, and drug solutions were applied to individual cells by rapid perfusion. Solutions were driven by a syringe pump through a flowpipe having 4 inputs that converge at a single common output of approximately 100 μm diameter. Rapid switching between inputs was achieved using a set of upstream solenoid valves (Lee Co., Westbrook, Conn.) under computer control; the solution exchange rate was ˜5 ms as measured from liquid junction currents.
(§2) To study these, transfected HEK293 cells expressing NR1/2A or NR1/2B receptors were voltage-clamped to −70 mV and stimulated with 100 μM glutamate plus 10 μM glycine at 30 s intervals. […] In FIGS. 3A and 3B, open bars depict the timing of agonist application, filled bars depict the timing of co-application of 20 μM IBO or 20 μM 18MC, and inhibition was measured relative to control at the end of the drug application (indicated by arrows).

For test [1], the system named is morphine self-administration. Kind of test: intravenous morphine self-administration. It is filed as in vivo, rat. The settings on record: 18-methoxycoronaridine 1 mg/kg i.p., dextromethorphan 5 mg/kg s.c. As for the experimental part:
Dextromethorphan hydrobromide (5 mg/kg; Sigma/RBI, St. Louis, Mo.) was dissolved in saline and injected subcutaneously 20 minutes before testing. Mecamylamine hydrochloride (1 mg/kg; Sigma/RBI, St. Louis, Mo.) was dissolved in physiological saline and injected intraperitoneally 30 minutes before testing. All rats received two injections. For rats that received a single drug, half of them also received the appropriate saline/vehicle injection corresponding to each of the other two drugs.
Naive female Long-Evans derived rats (250 g; Charles River, N.Y.) were maintained on a normal 12 h light cycle (lights on at 7:00 a.m., lights off at 7:00 p.m.). For all experiments the “Principles of Laboratory Animal Care” (NIH publication No. 85-23, revised 1985, which is hereby incorporated by reference) were followed.
The intravenous self-administration procedure described in Glick et al., “18-MC Reduces Methamphetamine and Nicotine Self-administration in Rats,” NeuroReport 11:2013-2015 (2000) (“Glick I”), which is hereby incorporated by reference, was employed. Briefly, responses on either of two levers (mounted 15 cm apart on the front wall of each operant test cage) were recorded on an IBM compatible computer with a Med Associates, Inc. interface. The intravenous self-administration system consisted of polyethylene-silicone cannulas constructed according to the design of Weeks, “Long-term Intravenous Infusion,” pp. 155-168 in Myers (ed.), Methods in Psychobiology, Vol. 2, New York: Academic Press (1972) (“Weeks”), which is hereby incorporated by reference; Instech harnesses and swivels; and Harvard Apparatus infusion pumps (#55-2222). Shaping of the bar-press response was initially accomplished by training rats to bar-press for water. Cannulas were then implanted in the external jugular vein according to procedures described in Weeks, which is hereby incorporated by reference. Self-administration testing began with a 16-h nocturnal session followed by daily 1-h sessions, 5 days (Monday-Friday) a week. A lever-press response produced a 10 μl infusion of drug solution (0.01 mg of morphine sulfate) in about 0.2 s or a 50 μl infusion of drug solution (0.025 mg of methamphetamine sulfate) in about 1 s. Since all rats generally weighed 250±20 g, each response delivered approximately 0.04 mg/kg of morphine or 0.1 mg/kg of methamphetamine. Experiments to assess the effects of experimental treatments were begun when baseline self-administration rates stabilized (≦10% variation from one day to the next across 5 days), usually after 2 weeks of testing.
Each data point represents the mean (±S.E.M.) percent of baseline of 6-8 rats. Significant differences between baseline and treatment are indicated by an asterisk (paired t-test, P<0.01-0.001).
Each data point represents the mean (±S.E.M.) percent of baseline of 5-8 rats. Significant differences between baseline and treatment are indicated by an asterisk (paired t-test), P<0.05-0.01).

The next test addresses T2, NR1/2B receptors (Rattus norvegicus, UniProt P35439+Q00960).
T2 construct: expressed in transfected cells; host or cells: HEK293 (ATCC CRL1573), transient transfection
Kind of test: whole-cell patch-clamp of transfected HEK293 cells, NR1/2B, 100 μM glutamate plus 10 μM glycine. It is filed as cell-based. The protocol:
as §1, §2

SMILES strings stand for the structures.

T1 sequence (Q00959 20-1464 limits assumed, other chains not shown): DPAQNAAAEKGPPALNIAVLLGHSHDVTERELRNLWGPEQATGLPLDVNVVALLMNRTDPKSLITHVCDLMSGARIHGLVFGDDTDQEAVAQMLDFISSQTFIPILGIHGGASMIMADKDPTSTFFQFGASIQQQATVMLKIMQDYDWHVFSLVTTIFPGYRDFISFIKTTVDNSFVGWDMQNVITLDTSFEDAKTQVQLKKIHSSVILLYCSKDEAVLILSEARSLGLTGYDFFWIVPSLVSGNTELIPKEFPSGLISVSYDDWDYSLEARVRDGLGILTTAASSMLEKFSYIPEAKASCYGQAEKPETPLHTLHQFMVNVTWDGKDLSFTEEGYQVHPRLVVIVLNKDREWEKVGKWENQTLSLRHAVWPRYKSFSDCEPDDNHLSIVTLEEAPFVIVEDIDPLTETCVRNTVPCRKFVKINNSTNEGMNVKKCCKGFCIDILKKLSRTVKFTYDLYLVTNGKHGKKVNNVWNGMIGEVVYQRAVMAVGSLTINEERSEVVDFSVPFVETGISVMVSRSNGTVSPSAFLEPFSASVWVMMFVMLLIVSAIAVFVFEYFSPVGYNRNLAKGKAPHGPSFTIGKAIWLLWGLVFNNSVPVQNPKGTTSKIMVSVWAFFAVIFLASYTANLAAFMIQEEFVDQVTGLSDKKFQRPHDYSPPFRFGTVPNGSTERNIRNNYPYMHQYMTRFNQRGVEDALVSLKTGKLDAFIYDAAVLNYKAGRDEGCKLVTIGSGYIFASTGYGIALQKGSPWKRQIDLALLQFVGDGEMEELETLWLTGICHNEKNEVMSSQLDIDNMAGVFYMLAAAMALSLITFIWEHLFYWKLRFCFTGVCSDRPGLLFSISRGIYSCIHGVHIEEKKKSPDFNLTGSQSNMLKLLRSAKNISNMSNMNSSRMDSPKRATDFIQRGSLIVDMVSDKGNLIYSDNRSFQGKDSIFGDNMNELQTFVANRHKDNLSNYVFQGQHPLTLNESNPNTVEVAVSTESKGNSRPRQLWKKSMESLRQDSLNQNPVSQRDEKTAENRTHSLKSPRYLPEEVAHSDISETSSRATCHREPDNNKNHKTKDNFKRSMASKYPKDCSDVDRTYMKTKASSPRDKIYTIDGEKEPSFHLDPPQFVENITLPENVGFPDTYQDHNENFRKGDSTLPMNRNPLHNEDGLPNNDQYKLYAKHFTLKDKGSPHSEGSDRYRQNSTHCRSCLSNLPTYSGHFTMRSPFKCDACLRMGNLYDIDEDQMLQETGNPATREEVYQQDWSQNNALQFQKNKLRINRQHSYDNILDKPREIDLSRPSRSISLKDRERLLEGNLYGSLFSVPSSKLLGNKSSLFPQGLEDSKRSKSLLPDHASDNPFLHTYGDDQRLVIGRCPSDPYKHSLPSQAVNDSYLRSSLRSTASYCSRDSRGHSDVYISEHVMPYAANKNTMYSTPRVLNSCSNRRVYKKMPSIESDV
T2 sequence (Q00960 27-1482, other chains not shown): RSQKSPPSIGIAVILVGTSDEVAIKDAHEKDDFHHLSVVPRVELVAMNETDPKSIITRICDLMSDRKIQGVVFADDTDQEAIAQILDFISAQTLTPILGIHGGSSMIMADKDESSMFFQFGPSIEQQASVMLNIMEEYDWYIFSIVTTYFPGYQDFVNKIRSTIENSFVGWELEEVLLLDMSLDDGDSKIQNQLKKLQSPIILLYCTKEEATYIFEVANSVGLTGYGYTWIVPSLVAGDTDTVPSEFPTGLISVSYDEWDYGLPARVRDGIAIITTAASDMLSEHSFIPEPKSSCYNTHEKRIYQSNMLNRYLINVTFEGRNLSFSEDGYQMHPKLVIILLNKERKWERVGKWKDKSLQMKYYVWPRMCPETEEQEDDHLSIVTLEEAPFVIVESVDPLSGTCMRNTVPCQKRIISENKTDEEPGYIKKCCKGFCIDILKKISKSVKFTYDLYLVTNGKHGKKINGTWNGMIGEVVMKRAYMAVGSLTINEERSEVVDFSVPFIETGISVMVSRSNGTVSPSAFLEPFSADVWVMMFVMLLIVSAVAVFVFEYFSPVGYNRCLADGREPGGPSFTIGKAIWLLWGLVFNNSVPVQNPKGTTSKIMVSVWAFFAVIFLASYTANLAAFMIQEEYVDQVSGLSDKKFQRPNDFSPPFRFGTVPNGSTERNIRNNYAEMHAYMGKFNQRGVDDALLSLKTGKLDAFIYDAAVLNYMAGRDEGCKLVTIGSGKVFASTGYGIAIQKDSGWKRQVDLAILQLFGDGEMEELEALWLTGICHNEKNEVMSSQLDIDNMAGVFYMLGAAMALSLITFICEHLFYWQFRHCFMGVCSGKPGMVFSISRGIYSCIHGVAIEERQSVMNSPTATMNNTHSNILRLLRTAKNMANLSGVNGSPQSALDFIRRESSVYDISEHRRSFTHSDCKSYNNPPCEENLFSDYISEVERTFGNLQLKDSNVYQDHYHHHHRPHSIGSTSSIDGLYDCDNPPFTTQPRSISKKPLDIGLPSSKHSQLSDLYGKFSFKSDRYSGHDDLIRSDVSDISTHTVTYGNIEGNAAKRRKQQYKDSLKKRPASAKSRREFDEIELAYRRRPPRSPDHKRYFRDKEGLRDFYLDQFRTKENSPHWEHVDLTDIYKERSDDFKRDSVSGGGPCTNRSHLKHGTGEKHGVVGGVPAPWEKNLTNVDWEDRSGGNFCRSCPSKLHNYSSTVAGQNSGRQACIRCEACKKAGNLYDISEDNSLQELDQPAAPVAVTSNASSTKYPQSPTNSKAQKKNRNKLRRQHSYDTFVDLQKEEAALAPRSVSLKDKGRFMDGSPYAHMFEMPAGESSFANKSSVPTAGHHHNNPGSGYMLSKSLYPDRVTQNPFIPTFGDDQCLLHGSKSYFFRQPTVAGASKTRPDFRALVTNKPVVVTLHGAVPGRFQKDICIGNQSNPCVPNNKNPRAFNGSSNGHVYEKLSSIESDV

For the compound `COCC[C@H]1CC2CN3CCc4c([nH]c5ccccc45)[C@](C(=O)OC)(C2)[C@H]13` [18-methoxycoronaridine], the “response to drug applied alone (agonist activity)” value on NR1/2A receptors (20 μM drug alone) and at NR1/2B receptors (20 μM drug alone) was “did not produce any response” throughout. Also, the “inhibition of agonist-evoked response” value was “failed to inhibit” at NR1/2A receptors (concentrations up to 20 μM, N=3, FIG. 3A) and “failed to inhibit” at NR1/2B receptors (concentrations up to 20 μM, N=5, FIG. 3B). For the same compound, the “effect on morphine self-administration (percent of baseline)” value in test [1] (Example 5, FIG. 5: mecamylamine 1 mg/kg i.p., 6-8 rats) was “none of the drugs administered alone, significantly decreased”; in test [1] (Example 6, FIG. 8: mecamylamine 1 mg/kg i.p., bupropion 5 mg/kg i.p., 5-8 rats), “none of the drugs administered alone, significantly decreased”.
